Experimental data taken from patent US20240182456A1, “2-((4-((S)-2-(4-CHLORO-2-FLUOROPHENYL)-2-METHYLBENZO[D][1,3]DIOXOL-4-YL)PIPERIDIN-1-YL)METHYL)-1-(((S)-OXETAN-2-YL)METHYL)-1H-IMIDAZOLE DERIVATIVES AS ACTIVATORS OF THE GLP1 RECEPTOR FOR THE TREATMENT OF OBESITY” (Novartis AG, priority 2021, published 2024).

Tests used:
human GLP1R (hGLP1R) [1] = molecular target: T1, human GLP1R (hGLP1R) (Homo sapiens, UniProt P43220); experiment: Human GLP1R β-arrestin recruitment assay (PathHunter); type: cell-based; set-up: insert synthesized by GeneArt 93-0164 (cells); 93-0491 (vector bundle); conditions: CHO-hGLP1R-β-arrestin cells; for EC50: mean n=2, read-out: Beta-Arrestin assay EC50 Mean; for Emax: relative to GLP1(7-36), read-out: Beta-Arrestin assay Emax
T1 sequence (P43220 24-463): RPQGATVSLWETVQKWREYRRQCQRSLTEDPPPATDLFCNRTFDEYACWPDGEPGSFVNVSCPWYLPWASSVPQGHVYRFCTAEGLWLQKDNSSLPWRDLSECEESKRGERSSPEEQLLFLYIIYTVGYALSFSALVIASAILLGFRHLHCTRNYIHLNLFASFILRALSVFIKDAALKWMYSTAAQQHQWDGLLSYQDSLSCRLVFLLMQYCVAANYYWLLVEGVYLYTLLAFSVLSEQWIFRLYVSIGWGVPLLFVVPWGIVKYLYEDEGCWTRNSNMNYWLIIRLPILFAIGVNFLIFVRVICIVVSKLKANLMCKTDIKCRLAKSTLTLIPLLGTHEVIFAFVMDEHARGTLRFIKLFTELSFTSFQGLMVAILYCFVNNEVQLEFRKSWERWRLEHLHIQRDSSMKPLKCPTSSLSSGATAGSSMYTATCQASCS
Procedure: Compounds 1 to 31 were tested in the following cellular assays that measure the intracellular cAMP concentration, beta-arrestin recruitment and receptor internalization. The cAMP is generated by the activation of GLP1R. The cAMP data obtained is shown in Table 1 (where S.E.M. is included, mean n=3 independent experiments+/−S.E.M). Beta-arrestin is recruited upon activation of GLP1R and the data obtained are shown in Table 2 (mean n=2 independent experiments, +/−S.D). The extent to which the GLP1R is internalized into the cell and away from the plasma membrane following activation is also shown in Table 2 (mean n=2 independent experiments, +/−S.D). EC50 for each assay is defined as the concentration of the compound that leads to half of the maximum response (after baseline correction). Emax is defined as the maximum response observed for the test compound, normalized to the maximum response observed for the endogenous ligand (GLP1(7-36)) to GLP1R.
The extent to which agonists recruited β-arrestin was measured using the PathHunter® β-arrestin assay (DiscoverX). This assay measures binding of β-arrestin to the receptor using an enzyme complementation approach. […] When β-arrestin is recruited to the receptor the enzyme becomes active and generates luminescence in the presence of a chemiluminescent substrate (PathHunter® Detection Kit, DiscoverX cat #93-0001). Luminescence can be measured on a relevant detector. CHO-hGLP1R-β-arrestin cells stably overexpressing hGLP1R with Prolink tag and β-arrestin with EA tag were seeded at 20 μL per well in white 384-well poly-D-Lysine coated plates (Greiner Bio One, cat #781945) in Plating Reagent 2 (DiscoverX, cat #93-0563R2A), and incubated overnight at 37° C., 5% CO2 with humidity. The following day, agonists were prepared at 5 times the final required concentration. To generate triplicate dose response curves, compounds were serially diluted 3-fold in assay buffer (HBSS, 10 mM Hepes and 0.1% BSA), then added to the cell assay plate to a final volume of 25 μL and final top concentrations starting at 30 μM. In the same plate and assay buffer as the tested compounds, were EC100 control wells containing GLP1 (7-36) peptide (Bachem, cat #H-6795) at a final concentration of 1 μM and also EC0 control wells containing no compound. The plate was incubated at 37° C., 5% CO2 with humidity for 2 h after adding the compounds to the cells. Then the detection reagent was prepared (19 parts cell assay buffer, 5 parts substrate reagent 1 and 1 part substrate reagent 2 as per manufacturers recommendations, DiscoverX cat #93-0001), and 12 μL were added per well to the cell assay plate. The plate was incubated for an additional hour in the dark at RT. Luminescence was then measured with an Envision 2104 Multilabel reader with “TRF Light Unit, 337 nm” (Perkin Elmer) using the Ultra-Sensitive protocol setting “384-well US luminescence detector” with the 384-well luminescence aperture, 0.1 sec per well. β-arrestin recruitment was calculated and expressed as percent of the GLP1 (7-36) EC100 control wells: [(sample signal−mean EC0 signal)/(mean EC100 of GLP1 (7-36) signal−mean EC0 signal)]*100 using Microsoft Excel. Curve fitting for EC50 determinations was performed using GraphPad Prism. The 4-parameter logistic model, Hill slope was used: Y=Bottom+(Top−Bottom)/(1+10^((Log EC50−X)*Hill Slope)), where Y is the functional response; X is the compound concentration; bottom is A0 or the minimum value (at 0 dose); top is Ainf or the maximum value (at infinite dose); EC50 is the point of inflection (i.e. the point on the sigmoid shaped curve halfway between A0 and Ainf). The EC50 value was calculated in μM. Emax is the maximal activity detected within the concentration range, derived from the fitted curve relative to GLP1(7-36). […]

human GLP1R (hGLP1R) [2] = molecular target: T1, human GLP1R (hGLP1R); experiment: Human GLP1R cAMP agonist assay (GloSensor); type: cell-based; conditions: HEK293-SNAP-hGLP1R-GloSensor cells; for Emax: cAMP, normalized to GLP1(7-36) maximum response, read-out: Emax mean; for EC50: intracellular cAMP, mean n=3 where SEM is given
Procedure, shortened: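 HEK293 cells stably expressing SNAP-tagged hGLP1R and the GloSensor-22F cAMP luciferase biosensor, pre-loaded 2 h with substrate, then exposed 12 min at rt to compound (30–0.06 μM, 0.5 mM IBMX, 0.1% BSA). Luminescence normalized to 2 nM GLP1(7-36); EC50 and Emax from 4-parameter logistic fit.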

SMILES | EC50 (human GLP1R (hGLP1R) [1]) [nM] | Emax (human GLP1R (hGLP1R) [1]) [%] | Emax (human GLP1R (hGLP1R) [2]) [%] | EC50 (human GLP1R (hGLP1R) [2]) [nM]
C[C@]1(c2ccc(Cl)cc2F)Oc2cccc(C3CCN(Cc4nc(C(F)(F)F)c(C(=O)O)n4C[C@@H]4CCO4)CC3)c2O1 [Compound C-7, 2-((4-((S)-2-(4-chloro-2-fluorophenyl)-2-methylbenzo[d][1,3]dioxol-4-yl)piperidin-1-yl)methyl)-1-(((S)-oxetan-2-yl)methyl)-4-(trifluoromethyl)-1H-imidazole-5-carboxylic acid] | > 30000 | 2 | 109 | 0.847
C[C@]1(c2ccc(Cl)cc2F)Oc2cccc(C3CCN(Cc4nc(/C=C/C(=O)O)cn4C[C@@H]4CCO4)CC3)c2O1 [Compound C-2, (E)-3-(2-((4-((S)-2-(4-chloro-2-fluorophenyl)-2-methylbenzo[d][1,3]dioxol-4-yl)piperidin-1-yl)methyl)-1-(((S)-oxetan-2-yl)methyl)-1H-imidazol-4-yl)acrylic acid] | > 30000 | 0 | 109 | 2.23
Cc1nc(CN2CCC(c3cccc4c3O[C@@](C)(c3ccc(Cl)cc3F)O4)CC2)n(C[C@@H]2CCO2)c1/C=C/C(=O)O [Compound C-5, (E)-3-(2-((4-((S)-2-(4-chloro-2-fluorophenyl)-2-methylbenzo[d][1,3]dioxol-4-yl)piperidin-1-yl)methyl)-4-methyl-1-(((S)-oxetan-2-yl)methyl)-1H-imidazol-5-yl)acrylic acid] | 404 | 12 | 110 | 0.0129
C[C@]1(c2ccc(Cl)cc2F)Oc2cccc(C3CCN(Cc4ncc(/C=C/C(=O)O)n4C[C@@H]4CCO4)CC3)c2O1 [Compound C-1, (E)-3-(2-((4-((S)-2-(4-chloro-2-fluorophenyl)-2-methylbenzo[d][1,3]dioxol-4-yl)piperidin-1-yl)methyl)-1-(((S)-oxetan-2-yl)methyl)-1H-imidazol-5-yl)acrylic acid] | 494 | 9 | 111 | 0.0197
